Source: the NIST ThermoML archive (doi:10.1021/je050005h)

Key:
[1] = xn = mol fraction of the nth substance listed; settings: 101 kPa, Liquid
[2] = 101 kPa, Liquid

O [water] + C1CCNC1
[1], x2 = 0
Settings | kinematic viscosity [m2/s] | mass density [kg/m3]
293.15 K | 9.9e-07 | –
303.15 K | 8.1e-07 | –
313.15 K | 6.66e-07 | –
323.15 K | 5.61e-07 | 988.02

C1CCNC1 [pyrrolidine]
[2]
Settings | kinematic viscosity [m2/s] | mass density [kg/m3]
293.15 K | 9.54e-07 | 859.87
303.15 K | 8.27e-07 | 850.11
313.15 K | 7.43e-07 | 840.24
323.15 K | 6.41e-07 | 833.88

C1CCNC1 [pyrrolidine] + O
[1]
Settings | kinematic viscosity, 293.15 K [m2/s] | kinematic viscosity, 303.15 K [m2/s] | kinematic viscosity, 313.15 K [m2/s] | kinematic viscosity, 323.15 K [m2/s] | mass density, 293.15 K [kg/m3] | mass density, 303.15 K [kg/m3] | mass density, 313.15 K [kg/m3] | mass density, 323.15 K [kg/m3]
x1 = 0.0057 | – | – | – | – | 997.13 | 994.41 | 990.83 | 986.46
x1 = 0.0101 | – | – | – | – | 996.33 | 993.49 | 989.78 | 985.31
x1 = 0.0221 | 1.44e-06 | 1.12e-06 | 8.8e-07 | 7.63e-07 | 994.47 | 991.12 | 986.92 | 982
x1 = 0.0678 | 2.47e-06 | 1.76e-06 | 1.34e-06 | 1.06e-06 | 989.46 | 983.41 | 976.91 | 970.03
x1 = 0.1158 | 3.52e-06 | 2.42e-06 | 1.77e-06 | 1.36e-06 | 980.95 | 973.19 | 965.26 | 957.15
x1 = 0.2076 | 4.53e-06 | 3.15e-06 | 2.27e-06 | 1.73e-06 | 962.31 | 953.57 | 944.65 | 935.51
x1 = 0.3039 | 4.78e-06 | 3.34e-06 | 2.46e-06 | 1.87e-06 | 943.39 | 934.33 | 925.06 | 915.6
x1 = 0.3958 | 4.36e-06 | 3.13e-06 | 2.31e-06 | 1.79e-06 | 928.64 | 919.34 | 909.83 | 900.11
x1 = 0.4834 | 3.64e-06 | 2.73e-06 | 2.08e-06 | 1.61e-06 | 917.04 | 907.58 | 897.92 | 888.05
x1 = 0.5671 | 2.99e-06 | 2.24e-06 | 1.76e-06 | 1.39e-06 | 906.1 | 896 | 886.2 | 877.7
x1 = 0.6858 | 2.13e-06 | 1.71e-06 | 1.37e-06 | 1.12e-06 | 893.17 | 883.53 | 873.7 | 863.68
x1 = 0.8675 | 1.31e-06 | 1.07e-06 | 9.13e-07 | 7.84e-07 | 872.39 | 862.69 | 852.81 | 846.3
x1 = 1 | 9.54e-07 | 8.27e-07 | 7.43e-07 | 6.41e-07 | 859.87 | 850.11 | 840.24 | 833.88

O [water] + C1CCNCC1
[1], x2 = 0
Settings | kinematic viscosity [m2/s] | mass density [kg/m3]
293.15 K | 9.9e-07 | –
303.15 K | 8.1e-07 | –
313.15 K | 6.66e-07 | –
323.15 K | 5.61e-07 | 988.02

C1CCNCC1 [piperidine]
[2]
Settings | kinematic viscosity [m2/s] | mass density [kg/m3]
293.15 K | 1.79e-06 | 863.81
303.15 K | 1.49e-06 | 854.5
313.15 K | 1.25e-06 | 845.08
323.15 K | 1.06e-06 | 835.56

C1CCNCC1 [piperidine] + O
[1]
Settings | kinematic viscosity, 293.15 K [m2/s] | kinematic viscosity, 303.15 K [m2/s] | kinematic viscosity, 313.15 K [m2/s] | kinematic viscosity, 323.15 K [m2/s] | mass density, 293.15 K [kg/m3] | mass density, 303.15 K [kg/m3] | mass density, 313.15 K [kg/m3] | mass density, 323.15 K [kg/m3]
x1 = 0.0055 | 1.11e-06 | 8.82e-07 | 7.18e-07 | 5.98e-07 | 997.07 | 994.34 | 990.68 | 986.17
x1 = 0.011 | 1.21e-06 | 9.53e-07 | 7.72e-07 | 6.36e-07 | 995.89 | 992.89 | 989.03 | 984.42
x1 = 0.028 | 1.5e-06 | 1.2e-06 | 9.42e-07 | 8.12e-07 | 992.43 | 987.87 | 982.66 | 976.92
x1 = 0.0573 | 2.2e-06 | 1.74e-06 | 1.33e-06 | 1.07e-06 | 985.56 | 979.56 | 973.25 | 966.6
x1 = 0.0986 | 3.55e-06 | 2.55e-06 | 1.88e-06 | 1.47e-06 | 974.58 | 967.57 | 960.35 | 952.86
x1 = 0.1795 | 5.94e-06 | 4.01e-06 | 2.81e-06 | 2.14e-06 | 955.67 | 947.6 | 939.32 | 930.84
x1 = 0.2672 | 7.62e-06 | 5.06e-06 | 3.48e-06 | 2.62e-06 | 940.18 | 931.55 | 922.71 | 913.66
x1 = 0.3536 | 8.02e-06 | 5.42e-06 | 3.71e-06 | 2.68e-06 | 927.85 | 918.89 | 909.73 | 900.37
x1 = 0.4387 | 7.04e-06 | 4.97e-06 | 3.49e-06 | 2.53e-06 | 917.5 | 908 | 899 | 889
x1 = 0.5225 | 6.09e-06 | 4.37e-06 | 3.1e-06 | 2.31e-06 | 906.51 | 897.28 | 887.84 | 878.22
x1 = 0.6458 | 4.49e-06 | 3.22e-06 | 2.33e-06 | 1.83e-06 | 892.99 | 883.65 | 874.16 | 864.51
x1 = 0.8454 | – | – | – | – | 875.08 | 865.74 | 856.27 | 846.67
x1 = 0.8455 | 2.6e-06 | 2e-06 | 1.62e-06 | 1.31e-06 | – | – | – | –
x1 = 1 | 1.79e-06 | 1.49e-06 | 1.25e-06 | 1.06e-06 | 863.81 | 854.5 | 845.08 | 835.56
